One test concerns sigma-1R. The note with it: read-out: IC50 / affinity for sigma-1R; cited from earlier work.
Test [1] concerns rat primary dopaminergic neurons (TH positive neurons). The test is described as follows: Survival of primary dopaminergic neurons injured by 6OHDA. It is filed as cell-based. As to conditions: 6OHDA 20 μM, 48 h. On the procedure:
Rat dopaminergic neurons were cultured as described (Schinelli S, et al. Journal of neurochemistry 50(6): 1900-1907). Briefly pregnant female rats of 15 days gestation were killed by cervical dislocation (Rats Wistar; Janvier) and the foetuses removed from the uterus. The embryonic midbrains were removed and placed in ice-cold medium of Leibovitz 15 (L15; PanBiotech, Ref P04-27055, Batch: 8810315) containing 2% of Penicillin-Streptomycin (PS; PanBiotech, ref: P06-07100, Batch: 7511015) and 1% of bovine serum albumin (BSA; PanBiotech, Ref: P06-1391100, Batch: H140904). Only the ventral portions of the mesencephalic flexure were used for the cell preparations as this region of the developing brain is rich in dopaminergic neurons. The midbrains were dissociated by trypsinization for 20 minutes (min) at 37° C. (Trypsin EDTA 1×; PanBiotech, Ref: P10-023100, batch: 1670415). The reaction was stopped by the addition of Dulbecco's modified Eagle's medium (DMEM; PanBiotech, Ref: P04-03600, Batch: 9021115) containing DNase I grade II (0.1 mg/ml; PanBiotech, Ref: P60-37780100, Batch: H140508) and 10% of fetal calf serum (FCS; Invitrogen). Cells were then mechanically dissociated by 3 passages through a 10 ml pipette. Cells were then centrifuged at 180×g for 10 min at 4° C. on a layer of BSA (3.5%) in L15 medium. The supernatant was discarded and the cell pellets were re-suspended in a defined culture medium consisting of Neurobasal (Invitrogen, Ref: 21103, Batch: 1754639) supplemented with B27 (2%; Invitrogen, ref: 17504, batch: 1799273), L-glutamine (2 mM; PanBiotech, Ref: P04-80100, Batch: 6620314) and 2% of PS, 10 ng/mL of BDNF (PanBiotech, Ref: CB-1115002, Batch: 121027) and 1 ng/mL of GDNF (PanBiotech, Ref: CB-1116001, Batch: H151004). Viable cells were counted in a Neubauer cytometer using the trypan blue exclusion test. The cells were seeded at a density of 4×10^4 cells/well in 96 well-plates (pre-coated with poly-D-lysine; Greiner, Ref: E150033VJ) and were cultured at 37° C. in a humidified air (95%)/CO2 (5%) atmosphere. Half of the medium was changed every 2 days with fresh medium. In these conditions, after 5 days of culture, astrocytes are present in the culture and release growth factor allowing neurons differentiation. Five to six percent of the neuronal cell population was dopaminergic neurons.
Briefly, on day 6 of culture, cells were pre-treated for 1 h with test compound or reference compound then intoxicated with 6OHDA (20 μM) for 48 h. The following conditions were done:
[…]_+6OHDA (20 μM, 48 h+BDNF (50 ng/ml) as a reference compound
One culture was done with 6 wells per condition. […]
The data were expressed as mean±s.e.m. […]

On to `CCC(C/C=C/c1ccccc1)(c1ccccc1)N(C)CC1CC1` (single isomer, unassigned; (+)) [igmesine, (+)-(E)-N-(cyclopropylmethyl)-N-methyl-3,6-diphenylhex-5-en-3-amine], for which the IC50 with sigma-1R was 39 ± 8 nM. In addition, the TH positive neurons is given as 94.58 % of the control in test [1] (0.3 μM), 100.49 % of the control in test [1] (1 μM) and 87.68 % of the control in test [1] (3 μM).

B1: BDNF: Brain-derived neurotrophic factor, used as a reference compound (protein, UniProt P23560 19-247, looked up)
Neurotrophic factor BDNF …: APMKEANIRGQGGLAYPGVRTHGTLESVNGPKAGSRGLTSLADTFEHVIEELLDEDQKVRPNEENNKDADLYTSRVMLSSQVPLEPPLLFLLEEYKNYLDAANMSMRVRRHSDPARRGELSVCDSISEWVTAADKKTAVDMSGGTVTVLEKVPVSKGQLKQYFYETKCNPMGYTKEGCRGIDKRHWNSQCRTTQSYVRALTMDSKKRIGWRFIRIDTSCVCTLTIKRGR
As for B1, the TH positive neurons in test [1] (50 ng/mL) was 91.03 % of the control.

(Values after patent publication US11129801B2 (SigmaThera SAS, priority 2016, dated 2021).)
